Assay results as given in ChEMBL document CHEMBL3813610, “Proteasome inhibition by new dual warhead containing peptido vinyl sulfonyl fluorides” (Bioorg Med Chem, 2016).

Experiment: Inhibition of 20S proteasome (unknown origin) using Suc-LLVY-AMC as substrate preincubated for 1 hr followed by substrate addition incubated for 1 hr by fluorescence analysis
Parameters: species or system Homo sapiens

SMILES | IC50 [nM]
CC(C)C[C@@H](CS(=O)(=O)F)NC(=O)[C@H](CC(C)C)NC(=O)[C@H](CC(C)C)NC(=O)OCc1ccccc1 | 89.1
CC(C)C[C@@H](CS(=O)(=O)F)NC(=O)[C@H](CC(C)C)NC(=O)[C@H](CC(C)C)NC(=O)[C@H](CC(C)C)NC(=O)OCc1ccccc1 | 17.8
CC(C)C[C@@H](/C=C/S(=O)(=O)F)NC(=O)[C@H](CC(C)C)NC(=O)[C@H](CC(C)C)NC(=O)[C@H](CC(C)C)NC(=O)OCc1ccccc1 | 99
CC(C)C[C@@H](/C=C/S(=O)(=O)F)NC(=O)[C@H](CC(C)C)NC(=O)[C@H](CC(C)C)NC(=O)OCc1ccccc1 | 218
